The target in assay [1] is PolQ ATPase enzyme (1-894) (Homo sapiens (Human), UniProt O75417). Kind of assay: Polθ ATPase enzymatic assay (3 nM enzyme concentration), ADP-Glo. The class given is biochemical. As for the experimental part: Following pre-incubation with inhibitors, DNA (Fork C) at 20 nM and ATP at 100 μM are added to start the reaction. Enzymatic reaction proceeds at rt for 60 min. ATP consumption is measured using the ADP-Glo assay from Promega. Luminescence is read on the Envision and IC50 are determined using the variable slope 4-parameters equation.
PolQ ATPase enzyme (1-894), sequence (O75417 1-894): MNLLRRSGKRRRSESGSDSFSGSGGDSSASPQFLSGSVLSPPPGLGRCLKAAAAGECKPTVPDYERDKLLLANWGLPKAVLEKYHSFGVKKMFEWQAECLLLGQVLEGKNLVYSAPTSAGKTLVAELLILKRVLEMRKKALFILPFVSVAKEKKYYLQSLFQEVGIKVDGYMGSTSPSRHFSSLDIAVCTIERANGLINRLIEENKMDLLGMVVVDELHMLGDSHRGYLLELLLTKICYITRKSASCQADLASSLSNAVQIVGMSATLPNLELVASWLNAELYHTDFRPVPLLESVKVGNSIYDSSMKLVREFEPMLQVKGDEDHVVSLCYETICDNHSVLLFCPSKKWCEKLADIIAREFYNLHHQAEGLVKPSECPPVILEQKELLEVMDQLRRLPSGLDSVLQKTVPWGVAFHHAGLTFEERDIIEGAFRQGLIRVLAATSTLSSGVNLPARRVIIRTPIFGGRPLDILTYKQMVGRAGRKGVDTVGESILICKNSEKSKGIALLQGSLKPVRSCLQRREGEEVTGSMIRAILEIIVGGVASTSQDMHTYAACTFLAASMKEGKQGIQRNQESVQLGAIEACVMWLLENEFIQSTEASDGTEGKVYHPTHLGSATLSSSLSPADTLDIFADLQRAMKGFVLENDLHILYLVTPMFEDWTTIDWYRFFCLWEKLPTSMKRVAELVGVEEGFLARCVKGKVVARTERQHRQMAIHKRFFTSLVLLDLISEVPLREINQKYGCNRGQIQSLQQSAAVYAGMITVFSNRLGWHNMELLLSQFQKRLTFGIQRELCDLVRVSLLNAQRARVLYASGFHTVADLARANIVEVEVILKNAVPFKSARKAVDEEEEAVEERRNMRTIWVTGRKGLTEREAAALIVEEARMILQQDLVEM
DNA (Fork C) is made by annealing 3 different oligos containing the following sequence of nucleotides:
Oligos are annealed by heating at 95° C. for 5 min in the following buffer (10 mM Tris-HCl PH7.5, 50 mM NaCl, 1 mM EDTA) and cooled to rt.
In Table 4, the Compounds were prepared according to Methods described previously using Intermediates described herein, commercially available reagents or intermediates described in the literature. In some cases, the use of protecting groups may be required to prepare Compounds described below.

A further assay concerns DLD1-BRCA2−/− tumors. The experiment in a line: Compound 113 and carboplatin, tumor volume in mice. The class given is in vivo, SCID-Beige mice. Particulars: Compound 113 45 mg/kg SDD suspension p.o. QD with carboplatin 25 mg/kg i.p. QW; day 35 N=10, p=0.0428 (FIG. 6A, 6B). The method, then:
(§1) A spray dried dispersion (SDD) formulation was developed using Compound 113. A 1:1 (w/w) mixture of Compound 113 and HPMCAS (grade H) were fully dissolved in a 4:1 (v/v) mixture of dichloromethane:methanol at a loading of ˜5% solid (w/w). The solution was spray-dried to an amorphous powder which was further dried overnight in a vacuum oven set to 40° C. to remove residual solvents. This SDD material was used for subsequent in vivo dosing in mouse models.
DLD1-BRCA2−/− (10^7 cells/mouse) cells were injected subcutaneously in SCID-Beige mice. Mice were randomized at a mean tumor volume of 150 mm^3. Compound 113 (45 mg/kg as an SDD suspension in 0.5% methocel+0.02% SLS) was dosed orally (p.o.) QD throughout the study. Carboplatin (25 mg/kg) was dosed i.p. QW. Control mice were dosed QD and QW with corresponding vehicle solutions. Tumor volumes were measured (caliper) every 2-3 days.

For assay [2], the system named is DOTC24510 BRCA 2 mutant breast tumor cells. The experiment in a line: Compound 113 and radiotherapy, cell viability by Incucyte. The class given is cell-based. Particulars: 200 nM Compound 113 with radiotherapy at 0.5 or 1 Gy on days 2, 6, 9; read day 13 (FIG. 5). As for the experimental part:
DOTC24510 BRCA 2 mutant breast tumor cells were plated in 96 well plates at a density of 1000 cells per well and cultured in tissue culture medium at 37° C. On day 1, cells were treated with either DMSO or 200 nM of Compound 113. Cells were irradiated with 0, 0.25, 0.5 or 1 Gy of radiation on days 2, 6, and 9. Cell viability was assessed by Incucyte assay on day 13.

The subject of assay [3] is DLD1 BRCA2 null tumor cells. The experiment in a line: Polθ-DNA-PK inhibitor combination, cell viability by Incucyte. The class given is cell-based. Particulars: in combination with AZD-7648 (DNA-PK inhibitor), 8 days (FIG. 4). The method, then: DLD1 BRCA2 null tumor cells were plated at 1000 cells/well in 96 well plates. Compounds were added on day 1 and cells were grown in at 37° C. for 8 days. Cell growth was assessed by the Incucyte assay. Cell viability was normalized to untreated cells.

Another assay has as its system HCT116 BRCA2−/− tumor. Kind of assay: Polθ-PARP inhibitor combination therapy, tumor volume in mice. The class given is in vivo, SCID-Beige mice. Particulars: Compound 113 30 mg/kg SDD suspension p.o. QD with olaparib 25 mg/kg p.o. QD; N=10, p=0.0008 (FIG. 2). The method, then:
as §1
HCT116-BRCA2−/− (10^7 cells/mouse) cells were injected subcutaneously in SCID-Beige mice. Mice were randomized at a mean tumor volume of 150 mm^3. Compound 113 (30 mg/kg as an SDD suspension in 0.5% methocel+0.02% SLS) and PARP inhibitor olaparib (25 mg/kg) were dosed orally (p.o.) QD throughout the study. Control mice were dosed QD with vehicle solution. Tumor volumes measured (caliper) every 3-4 days. N=10, Welch's t test, *** p=0.0008.

Assay [4] has as its system MDAMB436 BRCA1 mutant breast tumor cells. The experiment in a line: Polθ-DNA-PK inhibitor combination, cell viability by Incucyte. The class given is cell-based. Particulars: in combination with AZD-7648 (DNA-PK inhibitor), 9 days (FIG. 3). As for the experimental part: MDAMB436 BRCA1 mutant breast tumor cells were plated at 1500 cells/well in 96 well plates. Compounds were added on day 1 and cells were grown in at 37° C. for 9 days. Cell growth was assessed by the Incucyte assay. Cell viability was normalized to untreated cells.

For a further assay, the system named is HCT116 BRCA2−/− cells. Kind of assay: Combination of Compound 113 and PARP inhibitors, cell growth by Incucyte. The class given is cell-based. The method, then: HCT116-BRCA2−/− (750 cells/well) cells were seeded in a 96-well plate (Costar 3595) and incubated overnight in a tissue culture incubator (5% CO2, 37° C.). The next day, Compound 113 and PARP inhibitors (olaparib or niraparib) were added using a TECAN D300 instrument. Media was replenished with fresh compounds every 3 or 4 days. Cellular growth was monitored using the Incucyte® Live-Cell Analysis System until DMSO-treated wells reached 90% confluency (10-12 days). Cellular confluency was determined using Incucyte® Cell-by-Cell Analysis Software Module and dose-response curves calculated using GraphPad Prism software.

Data on two molecules can be found in patent US20260022114A1, “N-(5-SUBSTITUTED-[(1,3,4-THIADIAZOLYL) OR (1,3-THIAZOLYL)](SUBSTITUTED)CARBOXAMIDE COMPOUNDS, PHARMACEUTICAL COMPOSITIONS, AND METHODS OF PREPARING THE AMIDE COMPOUNDS AND OF THEIR USE” (Repare Therapeutics Inc., priority 2022, published 2026).

Entries after “also recorded” stand apart in the source; their conditions may differ.

Consider `COc1ccc(F)cc1-c1cnccc1C(=O)Nc1nnc([C@@H]2C[C@H]2c2nc3ccccc3n2C)s1` (racemic) [Compound 4, 3-(5-fluoro-2-methoxyphenyl)-N-(5-((1R,2R)-2-(1-methyl-1H-benzo[d]imidazol-2-yl)cyclopropyl)-1,3,4-thiadiazol-2-yl)isonicotinamide], for which the concentration for half-maximal inhibition (IC50) – broadly, the midpoint of a concentration-inhibition curve – in assay [1] amounted to 0.092 µM.

As to `COc1cnc(C(F)F)cc1-c1cc(-c2ccn(C)n2)ncc1C(=O)Nc1nnc(C#CC2CC2)s1` [Compound 113, N-(5-(cyclopropylethynyl)-1,3,4-thiadiazol-2-yl)-2′-(difluoromethyl)-5′-methoxy-6-(1-methyl-1H-pyrazol-3-yl)-[4,4′-bipyridine]-3-carboxamide], in the assay with DLD1-BRCA2−/− tumors, the “DLD1-BRCA2−/− tumor volume, combination versus monotherapy treatments” value was “sensitizes DLD1 BRCA2 null tumors to carboplatin; also recorded: superior at reducing tumor volume in mice”. Besides, the “DOTC24510 BRCA 2 mutant breast tumor cell viability, combination versus Compound 113 alone” value in assay [2] is given as “sensitizes DOTC24510 breast tumor cells to irradiation; also recorded: superior at reducing DOTC24510 BRCA 2 mutant breast tumor cell viability”. In addition, the “DLD1 BRCA2 null tumor cell viability, combination versus AZD-7648 alone” value in assay [3] is “sensitizes DLD1 BRCA2 null tumor cells to AZD-7648; also recorded: superior at reducing DLD1 BRCA2 null tumor cell viability”. Moreover, the “HCT116 BRCA2−/− tumor volume, combination versus inhibitors alone” value in the assay with HCT116 BRCA2−/− tumor was “superior at reducing tumor volume”. Moreover, in assay [4], the “MDAMB436 BRCA1 cell viability, combination versus AZD-7648 alone” value is recorded as “sensitizes MDAMB436 breast tumor cells to AZD-7648; also recorded: superior at reducing MDAMB436 BRCA1 cell viability”. Moreover, the “percent viability of HCT116 BRCA2−/− cells, combination versus inhibitors alone” value in the assay on HCT116 BRCA2−/− cells (in combination with niraparib, 10-12 days (FIG. 1B)) is on record as “superior at reducing cancer cell viability”; with HCT116 BRCA2−/− cells (in combination with olaparib, 10-12 days (FIG. 1A)) it was “superior at reducing cancer cell viability”.
